Assay [1] concerns BDNF. Put plainly: Pharmacological Test 8: influence on TrkB inhibition (BDNF expression, semi-quantitative RT-PCR). As to conditions: SH-SY5Y cells; test substance 10 mNU/mL 24 hours; K252a 500 nM or αTrkB 20 μg/mL added 30 minutes before completion; FIG. 9. Type of assay: cell-based, human. Here is the method:
K252a (tyrosine kinase inhibitor, 500 nM) or rabbit IgG of human TrkB-specific antibody (αTrkB, 20 μg/mL) was added to the cultured product 30 minutes before completion of the cultivation. After that, the same as in the above Pharmacological Test 1, the extracted total RNA was subjected to a semi-quantitative RT-PCR, the PCR product was separated by agarose electrophoresis and the bands of BDNF and cyclophilin A were visually detected.

The subject of assay [2] is BDNF. Put plainly: Pharmacological Test 6: influence of intracellular signaling inhibitors on BDNF expression. Type of assay: cell-based, human. As to conditions: SH-SY5Y cells; test substance 10 mNU/mL 24 hours; PD98059 10 μM, LY 294002 15 μM or SB 203580 0.5 μM added 30 minutes before completion; FIG. 7. Here is the method: PD98059 (MEK inhibitor, 10 μM), LY 294002 (PI-3K inhibitor, 15 μM) or SB 203580 (p38 MAPK inhibitor, 0.5 μM) dissolved in a medium was added to a cultured product 30 minutes before completion of the cultivation. After that, the same as in the above Pharmacological Test 1, the extracted total RNA was subjected to a semi-quantitative RT-PCT, the PCR product was separated by agarose gel electrophoresis and the bands of BDNF and cyclophilin were visually detected.

Another assay concerns ERK1/2. Put plainly: Inhibition of phosphorylation of ERK1/2 by MEK1/2 inhibitor. Type of assay: cell-based.
The test system of assay [3] is CREB. The assay can be described thus: Inhibition of phosphorylation of CREB by p38MAPK inhibitor. Type of assay: cell-based.
Assay [4] concerns CREB. The assay can be described thus: Pharmacological Test 5: effect to CREB pathway (immuno-blotting), phosphorylated CREB. Type of assay: cell-based. The settings on record: SH-SY5Y cells; BDNF given from outside of the cells (human recombinant BDNF 50 pg/mL; 10 or 30 minutes). The source says: (§1) Intracellular signaling molecules were detected by an immuno-blotting method using each of various specific antibodies produced to CREB (MAB 5432; Millipore), phosphorylated CREB (P-CREB: Clone 10E9; Millipore), P42/44 MAP kinase (ERK1/2; Cell Signaling Technology), phosphorylated P42/44 MAP kinase (P-MAPK: Tyr202/Tyr204; Cell Signaling Technology) and c-Fos (Gene Tex). […] After that, the cells were scraped off using a cell scraper (BD Bioscience), immediately washed with ice-cooled PBS and subjected to cytolysis according to a method of Mutoh, et al. (Proceedings of the National Academy of Sciences of the United States of America, vol. 92, pages 5087 to 5091, 1995). The cytolyzed product was subjected to an SDS-PAGE electrophoresis of 4 to 20% gel (ePAGEL; Atto Chemicals) and blotted to a PDVF (polyvinylidene fluoride) membrane. After said membrane was subjected to a blocking for 1 hour using Tris buffer physiological saline (TBS; 20 mM Tris-HCl, pH 7.5, 0.15M NaCl) containing 3% fat-free milk and 0.1% Tween 20 (TBS-T), a reaction with the primary antibody and the HRP-labeled secondary antibody was conducted in TBS-T for one hour at room temperature. Immuno-reactive bands of CREB, phosphorylated CREB, P42/44 MAP kinase, phosphorylated P42/44 MAP kinase and c-Fos were visually detected by a detection system by means of […] (ECL; GE Healthcare).

Assay [5] has as its system p42/44MAP kinase (ERK1/2). The assay can be described thus: Pharmacological Test 5: effect to CREB pathway (immuno-blotting), phosphorylated P42/44 MAP kinase. Type of assay: cell-based. The settings on record: SH-SY5Y cells; BDNF given from outside of the cells (human recombinant BDNF 50 pg/mL; 10 or 30 minutes).
Source text: as §1

With `COC(=O)[C@@]1(O)C[C@H]2O[C@]1(C)n1c3ccccc3c3c4c(c5c6ccccc6n2c5c31)C(=O)NC4` [Example K252a], the “BDNF expression enhanced by the test substance in presence of inhibitor or antibody” value with BDNF [1] is on record as “almost completely suppressed”.

Consider `COc1cccc(-c2cc(=O)c3ccccc3o2)c1N` [PD98059], for which, in the assay with BDNF [2], the “enhancement of BDNF expression by the test substance in presence of inhibitor” value is given as “suppressed”. Moreover, the “phosphorylation of ERK1/2” value in the assay on ERK1/2 is given as “inhibited”.

On to `C[S+]([O-])c1ccc(-c2nc(-c3ccncc3)c(-c3ccc(F)cc3)[nH]2)cc1` (stereo not shown) [SB203580], for which, in the assay with BDNF [2], the “enhancement of BDNF expression by the test substance in presence of inhibitor” value is listed as “suppressed”. In addition, in the assay with CREB [3], the “phosphorylation of CREB” value is “inhibited”.

B1: BDNF: human recombinant BDNF (Peprotech) given from outside of the cells (protein, UniProt P23560 19-247, looked up)
Neurotrophic factor BDNF …: APMKEANIRGQGGLAYPGVRTHGTLESVNGPKAGSRGLTSLADTFEHVIEELLDEDQKVRPNEENNKDADLYTSRVMLSSQVPLEPPLLFLLEEYKNYLDAANMSMRVRRHSDPARRGELSVCDSISEWVTAADKKTAVDMSGGTVTVLEKVPVSKGQLKQYFYETKCNPMGYTKEGCRGIDKRHWNSQCRTTQSYVRALTMDSKKRIGWRFIRIDTSCVCTLTIKRGR
In the case of B1, the “phosphorylation of CREB” value with CREB [4] is “enhanced”. In assay [5], the “phosphorylation of 42/44MAP kinase” value is listed as “enhanced”.

(Values after patent US9447466B2 (NIPPON ZOKI PHARMACEUTICAL CO., LTD., priority 2010, dated 2016).)
